Reference: US20180214428A1, “3-(1H-INDOL-2-YL)-1H-PYRAZOLO[3,4-B]PYRIDINES AND THERAPEUTIC USES THEREOF” (Samumed, LLC, priority 2015, published 2018)

Columns and labels:
[1] = tested on: Wnt activity (Sp5-Luc reporter gene, SW480 colon carcinoma cells); test: Screening assay for Wnt activity: Sp5-Luc reporter gene assay in SW480 cells; type: cell-based, human; settings: Homo sapiens, overnight incubation
Source text: The screening assay for Wnt activity is described as follows. Reporter cell lines can be generated by stably transducing cancer cell lines (e.g., colon cancer) or primary cells (e.g., IEC-6 intestinal cells) with a lentiviral construct that includes a Wnt-responsive promoter driving expression of the firefly luciferase gene.
SW480 colon carcinoma cells were transduced with a lentiviral vector expressing luciferase with a human Sp5 promoter consisting of a sequence of eight TCF/LEF binding sites. SW480 cells stably expressing the Sp5-Luc reporter gene and a hygromycin resistance gene were selected by treatment with 150 μg/mL of hygromycin for 7 days. These stably transduced SW480 cells were expanded in cell culture and used for all further screening activities. Each compound was dissolved in DMSO as a 10 mM stock and used to prepare compound source plates. Serial dilution (1:3, 10-point dose-response curves starting from 10 μM) and compound transfer was performed using the ECHO 550 (Labcyte, Sunnyvale, Calif.) into 384-well white solid bottom assay plates (Greiner Bio-One) with appropriate DMSO backfill for a final DMSO concentration of 0.1%. For Sp5-Luc reporter gene assays, the cells were plated at 4,000 cells/well in 384-well plates with medium containing 1% fetal bovine serum and incubated overnight at 37° C. and 5% CO2. Following incubation, 20 μl of BrightGlo luminescence reagent (Promega) was added to each well of the 384-well assay plates. The plates were placed on an orbital shaker for 2 min and then luminescence was quantified using the Envision (Perkin Elmer) plate reader. Readings were normalized to DMSO only treated cells, and normalized activities were utilized for EC50 calculations using the dose-response log (inhibitor) vs. response variable slope (four parameters) nonlinear regression feature available in GraphPad Prism 5.0 (or Dotmatics). For EC50 of >10 μM, the percent inhibition at 10 μM is provided.

SW480 colon cancer cells = test: Cell viability assay (CellTiter-Blue) in SW480 colon cancer cells; type: cell-based, human; settings: Homo sapiens, 96 h, four days, CellTiter-Blue
Description: Representative compounds were screened using the following assay procedure to assess the effect on cell viability as described below.
Each compound was dissolved in DMSO as a 10 mM stock and used to prepare compound source plates. Serial dilution (1:3, 8-point dose-response curves from 10 μM to 0.0045 μM) and compound transfer was performed using the ECHO 550 (Labcyte, Sunnyvale, Calif.) into 96-well clear bottom, black-walled plates (Corning-Costar).
Approximately 2×10^3 SW480 colon cancer cells were seeded into each well and allowed to incubate in the presence or absence of compound for four days at 37° C./5% CO2. Eight replicates of DMSO-treated cells served as controls and cells treated with compound were performed in duplicate.
After incubation, 20 μL of CellTiter-Blue (Promega) was added to each well allowed to incubate for approximately 3 hours. This reagent was a buffered solution which contains resazurin, metabolically active cells were able to reduce rezarurin (blue) into resorufin (pink) which was highly fluorescent. This measured fluorescence was used as a readout for cell viability.
After incubation, the plates were read at Ex 560 nm Em 590 nm (Cytation 3, BioTek). Dose-response curves were generated and EC50 concentration values were calculated using non-linear regression curve fit in the GraphPad Prism (San Diego, Calif.) or Dotmatics' Studies Software (Bishops Stortford, UK). For EC50 of >10 μM, the percent inhibition at 10 μM is provided.

[2] = tested on: primary human fibroblasts derived from IPF patients (LL29 cells); test: Inhibition of the fibrotic process: αSMA staining in TGF-β1 treated LL29 fibroblasts; type: cell-based; settings: Homo sapiens, Fibroblast, 96 h, TGF-β1 20 ng/mL, 4 days, % αSMA positive cells
Source text: Representative compounds were screened using primary human fibroblasts (derived from IPF patients) treated with TGF-β1 to determine their ability to inhibit the fibrotic process.
Primary human fibroblasts derived from IPF patients (LL29 cells) [^1Xiaoqiu Liu, et. al., “Fibrotic Lung Fibroblasts Show Blunted Inhibition by cAMP Due to Deficient cAMP Response Element-Binding Protein Phosphorylation”, Journal of Pharmacology and Experimental Therapeutics (2005), 315(2), 678-687; ^2Watts, K. L., et. al., “RhoA signaling modulates cyclin D1 expression in human lung fibroblasts; implications for idiopathic pulmonary fibrosis”, Respiratory Research (2006), 7(1), 88] were obtained from American Type Culture Collection (ATCC) and expanded in F12 medium supplemented with 15% Fetal Bovine Serum and Penicillin/Streptomycin.
Each compound was dissolved in DMSO as a 10 mM stock and used to prepare compound source plates. Serial dilution (1:2, 11-point dose-response curves from 10 μM to […]) and compound transfer was performed using the ECHO 550 (Labcyte, Sunnyvale, Calif.) into 384-well clear bottom assay plates (Greiner Bio-One) with appropriate DMSO backfill for a final DMSO concentration of 0.1%. LL29 cells are plated at 1,500 cells/well in 80 μL/well F12 medium supplemented with 1% Fetal Bovine Serum. One hour after addition of the cells, TGF-01 (Peprotech; 20 ng/mL) was added to the plates to induce fibrosis (ref. 1 and 2 above). Wells treated with TGF-β1 and containing DMSO were used as controls. Cells were incubated at 37° C. and 5% CO2 for 4 days. Following incubation for 4 days, SYTOX green nucleic acid stain (Life Technologies [Thermo Fisher Scientific]) was added to the wells at a final concentration of 1 μM and incubated at room temperature for 30 min. Cells were then fixed using 4% formaldehyde (Electron Microscopy Sciences), washed 3 times with PBS followed by blocking and permeabilization using 3% Bovine Serum Albumin (BSA; Sigma) and 0.3% Triton X-100 (Sigma) in PBS. Cells were then stained with antibody specific to α-smooth muscle actin (aSMA; Abcam) (ref. 1 and 2 above) in 3% Bovine Serum Albumin (BSA; Sigma) and 0.3% Triton X-100 (Sigma) in PBS, and incubated overnight at 4° C. Cells were then washed 3 times with PBS, followed by incubation with Alexa Flor-647 conjugated secondary antibody (Life Technologies [Thermo Fisher Scientific]) and DAPI at room temperature for 1 hour. Cells were then washed 3 times with PBS and plates were sealed for imaging. αSMA staining was imaged by excitation at 630 nm and emission at 665 nm and quantified using the Compartmental Analysis program on the CellInsight CX5 (Thermo Scientific). Dead or apoptotic cells were excluded from analysis based on positive SYTOX green staining. % of total cells positive for aSMA were counted in each well and normalized to the average of 11 wells treated with TGF-01 on the same plate using Dotmatics' Studies Software. The normalized averages (fold change over untreated) of 3 replicate wells for each compound concentration were used to create dose-responses curves and EC50 values were calculated using non-linear regression curve fit in the Dotmatics' Studies Software. For EC50 of >10 μM, the percent inhibition at 10 μM is provided.

IL-6 = IL-6 inhibition in LPS-stimulated THP-1 monocytes (HTRF); type: cell-based, human; settings: Homo sapiens; THP-1 cells, 500 ng/mL LPS, 22 h, HTRF IL-6 readout; 10-point dose-response from 10 μM
Description: Human monocyte cell line (THP-1 cells; Catalog # TIB-202, ATCC, Manassas, Va.) were cultured in Roswell Park Memorial Institute (RPMI) 1640 Medium (Catalog #21870-100, Buffalo, N.Y.) with 1% L-glutamine, 1% HEPES, 1% Sodium Pyruvate, 2% Sodium Bicarbonate supplemented with 100 units/mL penicillin, 50 μg/mL streptomycin, 2-mercaptoethanol (0.05 mM) [basal medium] and 10% fetal bovine serum (Catalog #16140089, Life Technologies, Carlsbad, Calif.) at 37° C. and 5% CO2.
THP-1 cells were cultured in basal media with 1% FBS for 24 hours before the start of the assay. Each compound was dissolved in DMSO as a 10 mM stock and used to prepare compound source plates. Serial dilution (1:3, 10-point dose-response curves starting from 10 μM) and compound transfer was performed using the ECHO 550 (Labcyte, Sunnyvale, Calif.) into 384-well white low volume assay plates (Greiner Bio-One) with appropriate DMSO backfill for a final DMSO concentration of 0.1%. THP-1 cells were plated at 5000 cells/well in the 384-well plates and incubated at 37° C. for 2 h. 500 ng/mL of LPS was added after 2 hours and cells were incubated for another 22 hours at 37° C. Plates were spun in a centrifuge for 1 minute at […] and a mixture of anti-IL6 XL665, and anti-IL6 Cryptate diluted in reconstitution buffer (Cisbio Inc.) was added to each well. Following incubation for 3 hrs at room temperature, Homogeneous Time-Resolved Fluorescence (HTRF) was measured using the Envision (Perkin Elmer) at 665 nm and […]. The ratio of fluorescence at 665 nm to 620 nm was used as a readout for IL6 quantification. All samples were processed in duplicate. Readings were normalized to DMSO treated cells and normalized activities were utilized for EC50 calculations using the dose-response log (inhibitor) vs. response variable slope (four parameters) nonlinear regression feature available in GraphPad Prism 5.0 (or Dotmatics). For EC50 of >10 μM, the percent inhibition at 10 μM is provided.

SMILES	EC50 [1] [µM]	EC50 (SW480 colon cancer cells) [µM]	EC50 (IL-6) [µM]	EC50 [2] [µM]
O=C(Nc1cncc(-c2cnc3[nH]nc(-c4cc5ccccc5[nH]4)c3c2)c1)C1CCC1 [Compound 247, N-(5-(3-(1H-Indol-2-yl)-1H-pyrazolo[3,4-b]pyridin-5-yl)pyridin-3-yl) cyclobutanecarboxamide]	0.53	1.36	0.1	0.067
CC(C)(C)C(=O)Nc1cncc(-c2cnc3[nH]nc(-c4cc5c(-c6cc(F)cc(CNS(C)(=O)=O)c6)cccc5[nH]4)c3c2)c1 [Compound 458, N-(5-(3-(4-(3-Fluoro-5-(methylsulfonamidomethyl)phenyl)-1H-indol-2-yl)-1H-pyrazolo[3,4-b]pyridin-5-yl)pyridin-3-yl)pivalamide]	0.485	1.06	0.146	1.2
CN(C)c1cncc(-c2cnc3[nH]nc(-c4cc5ncccc5[nH]4)c3c2)c1 [Compound 485, 5-(3-(1H-Pyrrolo[3,2-b]pyridin-2-yl)-1H-pyrazolo[3,4-b]pyridin-5-yl)-N,N-dimethylpyridin-3-amine]	3.81	3.44	7.4	2.79
Cn1cc(-c2cnc3[nH]nc(-c4cc5c(-c6cccs6)cccc5[nH]4)c3c2)cn1 [Compound 702, 5-(1-Methyl-1H-pyrazol-4-yl)-3-(4-(thiophen-2-yl)-1H-indol-2-yl)-1H-pyrazolo[3,4-b]pyridine]	1.32	1.12	1.37	0.874
Cc1ncc(-c2cnc3[nH]nc(-c4cc5ncccc5[nH]4)c3c2)n1C [Compound 997, 5-(1,2-Dimethyl-1H-imidazol-5-yl)-3-(1H-pyrrolo[3,2-b]pyridin-2-yl)-1H-pyrazolo[3,4-b]pyridine]	1.08	3.95	9	0.744

Further compounds by falling EC50 [1], results first:

EC50 [1] [µM]	EC50 (SW480 colon cancer cells) [µM]	EC50 (IL-6) [µM]	SMILES	EC50 [2] [µM]
0.484	1.06	0.541	CS(=O)(=O)NCc1cc(F)cc(-c2cccc3[nH]c(-c4n[nH]c5ncc(-c6cncc(NC(=O)C7CC7)c6)cc45)cc23)c1 [Compound 470, N-(5-(3-(4-(3-Fluoro-5-(methylsulfonamidomethyl)phenyl)-1H-indol-2-yl)-1H-pyrazolo[3,4-b]pyridin-5-yl)pyridin-3-yl)cyclopropanecarboxamide]	1.33
0.283	1.12	1.44	CN(C)c1cncc(-c2cnc3[nH]nc(-c4cc5c(-c6cc(F)cc(CNS(C)(=O)=O)c6)cccc5[nH]4)c3c2)c1 [Compound 457, N-(3-(2-(5-(5-(Dimethylamino)pyridin-3-yl)-1H-pyrazolo[3,4-b]pyridin-3-yl)-1H-indol-4-yl)-5-fluorobenzyl)methanesulfonamide]	1.72
0.21	1.69	0.547	CS(=O)(=O)NCc1cc(F)cc(-c2cccc3[nH]c(-c4n[nH]c5ncc(-c6cncc(NC(=O)c7ccccc7)c6)cc45)cc23)c1 [Compound 461, N-(5-(3-(4-(3-Fluoro-5-(methylsulfonamidomethyl)phenyl)-1H-indol-2-yl)-1H-pyrazolo[3,4-b]pyridin-5-yl)pyridin-3-yl)benzamide]	1.34
